# Data as given in US20240189289A1, “INHIBITORS OF EPHB3 SIGNALING” (The Brigham and Women`s Hospital, Inc., priority 2021, published 2024).
# Read-outs that look alike come from different tables or passages of the source.
# Tests used:
# Format in all cases: biochemical
# EphA4 = EphA4 (Homo sapiens, UniProt P54764); assay: Eph receptor kinase activity assay (radiometric), EphA4; settings: for remaining activity at 0.01 µM: 10 nM compound, read-out: EphA4 % act 10 nM; for remaining activity at 0.1 µM: 100 nM compound, read-out: EphA4 % act 100 nM; for remaining activity at 0.3 µM: 300 nM compound, read-out: EphA4 % act 300 nM; for remaining activity at 0.03 µM: 30 nM compound, read-out: EphA4 % act 30 nM
# Sequence of EphA4 (P54764 20-986): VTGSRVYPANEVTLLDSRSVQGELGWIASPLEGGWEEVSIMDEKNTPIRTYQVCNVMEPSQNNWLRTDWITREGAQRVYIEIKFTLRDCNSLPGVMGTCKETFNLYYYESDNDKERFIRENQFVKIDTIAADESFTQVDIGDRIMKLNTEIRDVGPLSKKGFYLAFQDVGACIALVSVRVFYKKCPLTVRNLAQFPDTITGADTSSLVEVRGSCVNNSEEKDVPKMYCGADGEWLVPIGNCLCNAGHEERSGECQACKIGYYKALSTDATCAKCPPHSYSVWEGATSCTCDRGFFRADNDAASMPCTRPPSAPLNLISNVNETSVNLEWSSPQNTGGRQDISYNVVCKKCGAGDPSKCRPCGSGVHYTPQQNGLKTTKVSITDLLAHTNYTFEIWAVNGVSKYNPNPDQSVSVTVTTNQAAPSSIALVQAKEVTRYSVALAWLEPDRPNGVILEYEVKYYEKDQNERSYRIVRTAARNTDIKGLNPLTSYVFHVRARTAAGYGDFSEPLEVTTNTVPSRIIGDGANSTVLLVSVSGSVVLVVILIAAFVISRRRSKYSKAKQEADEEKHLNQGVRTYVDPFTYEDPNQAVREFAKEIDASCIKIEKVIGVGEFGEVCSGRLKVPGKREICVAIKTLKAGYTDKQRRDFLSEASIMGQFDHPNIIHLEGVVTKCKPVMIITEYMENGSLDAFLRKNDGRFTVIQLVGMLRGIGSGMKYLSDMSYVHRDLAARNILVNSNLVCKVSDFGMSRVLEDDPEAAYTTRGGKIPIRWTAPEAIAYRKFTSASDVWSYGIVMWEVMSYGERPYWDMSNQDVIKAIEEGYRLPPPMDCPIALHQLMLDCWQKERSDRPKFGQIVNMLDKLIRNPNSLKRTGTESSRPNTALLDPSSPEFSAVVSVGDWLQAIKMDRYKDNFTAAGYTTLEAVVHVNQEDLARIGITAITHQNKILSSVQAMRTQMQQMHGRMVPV
# EphA2 = EphA2 (Homo sapiens, UniProt P29317); assay: Eph receptor kinase activity assay (radiometric), EphA2; settings: for remaining activity at 0.01 µM: 10 nM compound, read-out: EphA2 % act 10 nM; for remaining activity at 0.1 µM: 100 nM compound, read-out: EphA2 % act 100 nM; for remaining activity at 0.3 µM: 300 nM compound, read-out: EphA2 % act 300 nM; for remaining activity at 0.03 µM: 30 nM compound, read-out: EphA2 % act 30 nM
# Sequence of EphA2 (P29317 24-976): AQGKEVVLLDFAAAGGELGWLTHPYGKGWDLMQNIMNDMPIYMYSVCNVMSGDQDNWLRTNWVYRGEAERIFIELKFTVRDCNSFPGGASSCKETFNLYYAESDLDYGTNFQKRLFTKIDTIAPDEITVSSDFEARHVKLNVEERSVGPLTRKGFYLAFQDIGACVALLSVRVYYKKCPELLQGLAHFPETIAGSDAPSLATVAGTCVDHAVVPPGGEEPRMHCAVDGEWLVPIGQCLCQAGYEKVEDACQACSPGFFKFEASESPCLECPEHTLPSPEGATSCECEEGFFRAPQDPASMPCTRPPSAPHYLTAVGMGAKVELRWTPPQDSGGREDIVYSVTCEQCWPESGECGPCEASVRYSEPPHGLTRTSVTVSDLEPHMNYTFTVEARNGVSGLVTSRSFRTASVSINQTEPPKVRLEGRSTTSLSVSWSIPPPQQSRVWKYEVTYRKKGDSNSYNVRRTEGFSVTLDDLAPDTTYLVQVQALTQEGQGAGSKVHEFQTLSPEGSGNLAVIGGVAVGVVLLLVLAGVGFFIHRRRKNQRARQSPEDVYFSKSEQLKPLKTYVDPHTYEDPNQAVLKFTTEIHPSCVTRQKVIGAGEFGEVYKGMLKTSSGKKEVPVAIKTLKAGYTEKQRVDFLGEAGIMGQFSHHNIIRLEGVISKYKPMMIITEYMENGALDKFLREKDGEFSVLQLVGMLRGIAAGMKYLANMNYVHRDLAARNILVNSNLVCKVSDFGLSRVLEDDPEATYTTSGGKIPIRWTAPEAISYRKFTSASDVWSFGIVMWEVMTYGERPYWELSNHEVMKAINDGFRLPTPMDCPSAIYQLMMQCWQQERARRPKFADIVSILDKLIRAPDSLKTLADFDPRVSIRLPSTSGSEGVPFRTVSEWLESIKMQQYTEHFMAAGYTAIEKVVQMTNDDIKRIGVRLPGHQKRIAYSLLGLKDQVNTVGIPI
# EphB3 = biological target: T1, EphB3 (Homo sapiens, UniProt P54753); assay: EphB3 radiometric kinase activity assay (33P ATP filter binding); settings: for remaining activity at 0.01 µM: 10 nM compound, read-out: EphB3 % act 10 nM; for remaining activity at 0.1 µM: 100 nM compound, read-out: EphB3 % act 100 nM; for remaining activity at 0.3 µM: 300 nM compound, read-out: EphB3 % act 300 nM; for remaining activity at 0.03 µM: 30 nM compound, read-out: EphB3 % act 30 nM
# T1 sequence (P54753 34-998): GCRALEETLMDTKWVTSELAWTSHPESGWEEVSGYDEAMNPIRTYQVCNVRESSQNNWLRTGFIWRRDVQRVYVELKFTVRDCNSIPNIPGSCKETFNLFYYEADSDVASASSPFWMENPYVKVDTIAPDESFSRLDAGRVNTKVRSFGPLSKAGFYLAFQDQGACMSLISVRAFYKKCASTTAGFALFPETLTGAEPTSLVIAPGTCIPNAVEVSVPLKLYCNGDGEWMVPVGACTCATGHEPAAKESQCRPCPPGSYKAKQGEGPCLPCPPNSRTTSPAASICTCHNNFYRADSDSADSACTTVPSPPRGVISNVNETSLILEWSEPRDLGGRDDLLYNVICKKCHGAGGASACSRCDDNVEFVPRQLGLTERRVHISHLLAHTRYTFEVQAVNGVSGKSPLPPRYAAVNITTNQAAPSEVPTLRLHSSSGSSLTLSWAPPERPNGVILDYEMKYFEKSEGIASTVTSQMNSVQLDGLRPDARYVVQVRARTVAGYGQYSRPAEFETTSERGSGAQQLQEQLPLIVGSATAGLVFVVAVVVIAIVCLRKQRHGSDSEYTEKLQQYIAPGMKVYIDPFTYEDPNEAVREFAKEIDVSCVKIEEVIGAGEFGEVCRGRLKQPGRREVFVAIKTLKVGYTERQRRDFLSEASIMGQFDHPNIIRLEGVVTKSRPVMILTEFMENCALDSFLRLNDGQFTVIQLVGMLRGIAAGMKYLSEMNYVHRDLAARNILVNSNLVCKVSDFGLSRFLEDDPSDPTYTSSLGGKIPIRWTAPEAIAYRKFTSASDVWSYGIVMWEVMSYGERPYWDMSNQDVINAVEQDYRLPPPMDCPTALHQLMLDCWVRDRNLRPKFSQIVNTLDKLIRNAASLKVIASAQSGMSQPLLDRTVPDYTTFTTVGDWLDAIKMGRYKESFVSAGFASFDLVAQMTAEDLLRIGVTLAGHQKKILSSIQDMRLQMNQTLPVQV
# Description: EphB3 radiometric kinase activity assay. To study the EphB3 kinase activity, a radioactive filter binding assay using 33P ATP was performed as described at the […] International Centre for Kinase profiling. […] The mix was harvested onto P81 filter plates and counts were read on a Topcount NXT.
# EphB4 = biological target: T2, EphB4 (Homo sapiens, UniProt P54760); assay: Eph receptor kinase activity assay (radiometric), EphB4; settings: for remaining activity at 0.01 µM: 10 nM compound, read-out: EphB4 % act 10 nM; for remaining activity at 0.1 µM: 100 nM compound, read-out: EphB4 % act 100 nM; for remaining activity at 0.3 µM: 300 nM compound, read-out: EphB4 % act 300 nM; for remaining activity at 0.03 µM: 30 nM compound, read-out: EphB4 % act 30 nM
# T2 sequence (P54760 16-987): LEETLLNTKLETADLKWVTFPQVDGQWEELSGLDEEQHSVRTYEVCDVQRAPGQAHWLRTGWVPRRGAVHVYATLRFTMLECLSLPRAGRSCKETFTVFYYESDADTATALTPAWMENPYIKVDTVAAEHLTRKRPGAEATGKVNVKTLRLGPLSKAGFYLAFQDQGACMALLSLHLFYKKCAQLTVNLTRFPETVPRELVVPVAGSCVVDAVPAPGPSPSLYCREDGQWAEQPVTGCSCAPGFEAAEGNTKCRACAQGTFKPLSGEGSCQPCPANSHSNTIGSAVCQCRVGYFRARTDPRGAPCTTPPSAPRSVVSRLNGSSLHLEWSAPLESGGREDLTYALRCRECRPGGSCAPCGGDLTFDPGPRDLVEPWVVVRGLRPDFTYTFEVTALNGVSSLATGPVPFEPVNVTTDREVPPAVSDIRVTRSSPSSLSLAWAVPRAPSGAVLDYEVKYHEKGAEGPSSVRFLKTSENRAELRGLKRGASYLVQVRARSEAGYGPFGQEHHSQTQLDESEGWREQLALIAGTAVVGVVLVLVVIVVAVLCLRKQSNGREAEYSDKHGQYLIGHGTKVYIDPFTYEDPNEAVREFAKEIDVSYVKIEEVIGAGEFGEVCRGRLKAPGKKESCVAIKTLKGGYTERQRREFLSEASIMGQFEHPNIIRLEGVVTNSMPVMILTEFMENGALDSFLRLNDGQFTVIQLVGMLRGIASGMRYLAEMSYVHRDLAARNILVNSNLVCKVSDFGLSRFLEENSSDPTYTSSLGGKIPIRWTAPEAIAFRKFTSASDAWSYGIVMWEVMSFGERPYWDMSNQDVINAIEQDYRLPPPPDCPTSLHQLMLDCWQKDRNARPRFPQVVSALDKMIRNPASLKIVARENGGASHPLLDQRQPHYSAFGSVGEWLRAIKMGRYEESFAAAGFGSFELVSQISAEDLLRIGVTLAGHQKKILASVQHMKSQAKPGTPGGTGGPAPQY
# [1] = Example 14, read-out: IC50 (μM), EphB3 receptor kinase inhibitory activity
Structure (SMILES),remaining activity at 0.01 µM (EphA4) [%],remaining activity at 0.1 µM (EphA4) [%],remaining activity at 0.3 µM (EphA4) [%],remaining activity at 0.01 µM (EphA2) [%],remaining activity at 0.1 µM (EphA2) [%],remaining activity at 0.3 µM (EphA2) [%],remaining activity at 0.01 µM (EphB3) [%],remaining activity at 0.1 µM (EphB3) [%],remaining activity at 0.3 µM (EphB3) [%],remaining activity at 0.01 µM (EphB4) [%],remaining activity at 0.1 µM (EphB4) [%],remaining activity at 0.3 µM (EphB4) [%],IC50 (EphB3; [1]) [µM],also measured
"CN1CCC(c2ccc3ncc(C(=O)Nc4ccccc4Cl)n3c2)CC1 [compound 122, N-(2-chlorophenyl)-6-(1-methylpiperidin-4-yl)imidazo[1,2-a]pyridine-3-carboxamide]",,,,,,,,,,,,,0.089,
"COc1ccc(Cl)c(NC(=O)c2cnc3ccc(C4CCNCC4)cn23)c1 [compound 118, N-(2-Chloro-5-methoxyphenyl)-6-(piperidin-4-yl)imidazo[1,2-a]pyridine-3-carboxamide]",87,47.3,,104,82.1,,116,91.4,,97.4,66.5,,,"remaining activity at 0.03 µM (EphA4): 55.9%; IC50 (EphA4; Table 3, Example 13): 57 nM; remaining activity at 0.03 µM (EphA2): 83.5%; IC50 (EphA2; Table 3, Example 13): 288 nM; remaining activity at 0.03 µM (EphB3): 73.9%; IC50 (EphB3; Table 3, Example 13, read-out: EphB3 (nM) IC50): 0.63 µM; remaining activity at 0.03 µM (EphB4): 97.5%; IC50 (EphB4; Table 3, Example 13): 407 nM"
"O=C(Nc1ccccc1Cl)c1cnc2ccc(-c3ncccn3)cn12 [compound 115, N-(2-Chlorophenyl)-6-(pyrimidin-2-yl)imidazo[1,2-a]pyridine-3-carboxamide]",104,54,34,115,67,40,108,55,28,89,32,9,,
"O=C(Nc1ncccc1Cl)c1cnc2ccc(C3CCNCC3)cn12 [compound 120, N-(3-chloropyridin-2-yl)-6-(piperidin-4-yl)imidazo[1,2-a]pyridine-3-carboxamide]",,,,,,,,,,,,,2.9,
"O=C(Nc1ccncc1Cl)c1cnc2ccc(C3CCNCC3)cn12 [compound 121, N-(3-chloropyridin-4-yl)-6-(piperidin-4-yl)imidazo[1,2-a]pyridine-3-carboxamide]",,,,,,,,,,,,,8.1,
"O=C(Nc1cccc2c1CCO2)c1cnc2ccc(C3CCNCC3)cn12 [compound 124, N-(2,3-dihydrobenzofuran-4-yl)-6-(piperidin-4-yl)imidazo[1,2-a]pyridine-3-carboxamide]",,,,,,,,,,,,,84,
"O=C(Nc1cccc(F)c1Cl)c1cnc2ccc(C3CCNCC3)cn12 [compound 123, N-(2-chloro-3-fluorophenyl)-6-(piperidin-4-yl)imidazo[1,2-a]pyridine-3-carboxamide]",,,,,,,,,,,,,6,

# Continued, in another order:
remaining activity at 0.01 µM (EphA4) [%],remaining activity at 0.1 µM (EphA4) [%],remaining activity at 0.3 µM (EphA4) [%],remaining activity at 0.01 µM (EphA2) [%],remaining activity at 0.1 µM (EphA2) [%],remaining activity at 0.3 µM (EphA2) [%],remaining activity at 0.01 µM (EphB3) [%],remaining activity at 0.1 µM (EphB3) [%],remaining activity at 0.3 µM (EphB3) [%],remaining activity at 0.01 µM (EphB4) [%],remaining activity at 0.1 µM (EphB4) [%],remaining activity at 0.3 µM (EphB4) [%],IC50 (EphB3; [1]) [µM],Structure (SMILES),also measured
50,25,12,53,33,14,50,14,7,37,7,2,,"O=C(Nc1ccccc1Cl)c1cnc2ccc(-c3ccccn3)cn12 [compound 112, N-(2-chlorophenyl)-6-(pyridin-2-yl)imidazo[1,2-a]pyridine-3-carboxamide]",
65,36,12,71,46,21,58,39,7,75,48,3,,"NC(=O)c1cccc(-c2ccc3ncc(C(=O)Nc4ccccc4Cl)n3c2)c1 [compound 110, 6-(3-Carbamoylphenyl)-N-(2-chlorophenyl)imidazo[1,2-a]pyridine-3-carboxamide]",
24,8,5,77,11,0,22,6,4,22,6,3,,"NCc1ccc(-c2ccc3ncc(C(=O)Nc4ccccc4Cl)n3c2)cc1 [compound 109, 6-(4-(Aminomethyl)phenyl)-N-(2-chlorophenyl)imidazo[1,2-a]pyridine-3-carboxamide]",
83.8,55.1,,110,72.7,,132,63.5,,98.9,110,,0.13,"Cc1ccccc1-c1ccc2ncc(C(=O)Nc3ccccc3Cl)n2c1 [compound 106, N-(2-Chlorophenyl)-6-(2-methylphenyl)imidazo[1,2-a]pyridine-3-carboxamide]","remaining activity at 0.03 µM (EphA4): 58.3%; IC50 (EphA4; Table 2, Example 12): 110 nM; remaining activity at 0.03 µM (EphA2): 78.9%; IC50 (EphA2; Table 2, Example 12): 245 nM; remaining activity at 0.03 µM (EphB3): 93.8%; IC50 (EphB3; Table 2, Example 12, read-out: EphB3 (nM) IC50): 0.182 µM; remaining activity at 0.03 µM (EphB4): 106%; IC50 (EphB4; Table 2, Example 12): 675 nM"
102,85.6,,76,70.5,,103,41,,94.7,132,,,"COc1cccc(-c2ccc3ncc(C(=O)Nc4ccccc4Cl)n3c2)c1 [compound 103, N-(2-Chlorophenyl)-6-(3-methoxyphenyl)imidazo[1,2-a]pyridine-3-carboxamide]",remaining activity at 0.03 µM (EphA4): 85.1%; remaining activity at 0.03 µM (EphA2): 75.3%; remaining activity at 0.03 µM (EphB3): 86.2%; remaining activity at 0.03 µM (EphB4): 106%
